Experiment [1] has as its target T1, VCB complex (Homo sapiens, UniProt P40337).
T1 construct: His6 (TEV site) (N, cleaved yes); made in house
Description: SPR binary binding to immobilised VCB complex. As to the method:
SMARCA4^BD was provided by the Structural Genomics Consortium (SGC), Toronto[32] and SMARCA2^BD and PRM1^BD5 were synthesised by GeneArt then subcloned into pDEST15 vectors (Invitrogen). The VCB complex was expressed and purified as described previously, with the modification that 0.3 mM IPTG was used for induction of expression. […] Both were stored in 20 mM 4-(2-hydroxyethyl)−1-piperazineethanesulfonic acid (HEPES), 150 mM sodium chloride and 1 mM tris(2-carboxyethyl)phosphine (TCEP) pH 7.5. SMARCA2^BD, SMARCA4^BD and PBRM1^BD5 were expressed in Escherichia coli BL21(DE3) as N-terminal GST fusion proteins with a TEV protease cleavage site. Expression and purification of these proteins has been described previously[32],[33]. Starter cultures were grown overnight at 37 °C in 10 mL of Luria-Bertani (LB) medium with ampicillin (100 μg/mL). The starter cultures were diluted (1:100) in Terrific Broth (TB) medium with ampicillin (100 μg/mL) and grown in a shaking incubator at 37 °C to an optical density (OD600) ~1 before the temperature was lowered for induction (to 23 °C for SMARCA2^BD or 18 °C for SMARCA4^BD and PRRM1^BD5). […] Cells were harvested by centrifugation and stored at −80 °C prior to purification. […] The Lysis buffers were as follows: for SMARCA2^BD: 50 mM HEPES, 500 mM sodium chloride, 5% glycerol, 5 mM dithiothreitol (DTT); for SMARCA4^BD: 25 mM HEPES, 0.3 M sodium chloride, 5% glycerol, 10 mM DTT, pH 7.5; for PBRM1^BD5: 25 mM HEPES, 300 mM sodium chloride, 5% glycerol, 10 mM DTT, pH 7.8; in each case supplemented with complete protease inhibitors (Roche). Affinity purification was performed using Glutathione Sepharose 4B (GE Healthcare) in batch mode or on-column. […] For SMARCA2^BD, prior to TEV protease cleavage the eluted GST-tagged BD was first dialysed into desalting buffer (20 mM HEPES, 250 mM sodium chloride, pH 7.0 + 0.5% glycerol). Where TEV cleavage was performed in solution, a second affinity (GST-trap) column purification step was carried out to remove the GST-tag and uncleaved GST-tagged protein. Proteins were further purified by SEC (HiLoad Superdex-75, 16/600) (GE Healthcare) and stored in Storage buffer (for SMARCA2^BD: 20 mM HEPES, 150 mM sodium chloride, pH 7.5; for SMARCA4^BD: 10 mM HEPES, 0.5 M NaCl, 5% glycerol, pH 7.5; for PBRM1^BD5: 20 mM HEPES, 300 mM NaCl, 5 mM DTT, pH 7.8). For AlphaScreen assays, eluted GST-tagged BDs were purified directly by SEC in the respective storage buffers without TEV cleavage. All chromatography purification steps were performed either at room temperature or 4 °C using an ÄKTA FPLC purification system (GE Healthcare) or a plastic Econo-Pac column (Bio-Rad).
(§1) SPR data were acquired on Biacore 8K or T200 instruments (Cytiva). Target proteins were immobilised at 25 °C on CM5 chips by amine coupling (EDC/NHS, Cytiva) in HBS-P+ running buffer (pH 7.4), containing 2 mM TCEP. […] The reference surface was subsequently deactivated using 1 M ethanolamine. […] Biotinylated VCB was prepared as previously described[27]: in brief, the complex was mixed 1:1 with EZ-Link NHS–PEG4–biotin (Thermo Scientific) and incubated at room temperature for 1 h. Unreacted NHS-biotin was removed using a PD-10 desalting column (Cytiva) into 20 mM HEPES, pH 7.5, 150 mM sodium chloride and 1 mM DTT. The reference surface was generated by deactivating the EDC/NHS-treated surface with 1 M ethanolamine. All interaction experiments were done at 6 °C in running buffer (20 mM TRIS, pH 8.3, 150 mM potassium chloride, 2 mM magnesium chloride, 2 mM TCEP, 0.005% TWEEN 20, 1% dimethyl sulfoxide). For ternary complex measurements, a sensor chip surface with VCB immobilised was used (preparation as described above). Experiments were run in dual-inject mode with 10 µM SMARCA present during the injection and dissociation phase. Sensorgrams from reference surfaces and blank injections were subtracted from the raw data prior to data analysis using Biacore Insight software.

Experiment [2] deals with VCB: PROTAC: SMARCA2^BD ternary complex. Description: TR-FRET ternary complex affinity and cooperativity, SMARCA2. Particulars: ratio TR-FRET EC50 / TR-FRET EC50 +VCB measured in the same run, SMARCA2BD. Type of experiment: binding, human.
Experiment [3] deals with VCB: PROTAC: SMARCA4^BD ternary complex (Homo sapiens, UniProt P40337+P51532). The experiment is described as follows: SPR ternary complex measurement, VCB immobilised, 10 µM SMARCA4^BD present. Type of experiment: binding. Also noted: P51532, residues 1448–1569 with additional N-terminal SM residues; His6 (TEV site) (N, cleaved yes); GST (TEV site) (N, cleaved yes); made in house; host or cells: SMARCA4^BD: Escherichia coli BL21(DE3). Particulars: for Kd: SPR; for alpha: cooperativity, SMARCA4, ratio of KD values measured in the same run. As to the method: as §1, with “software. Affinity and binding kinetic parameters were determined by global fitting using the 1:1 interaction model with a term for mass-transport included.” for “software.”
Chain of VCB: PROTAC: SMARCA4^BD ternary complex (P40337 54-213): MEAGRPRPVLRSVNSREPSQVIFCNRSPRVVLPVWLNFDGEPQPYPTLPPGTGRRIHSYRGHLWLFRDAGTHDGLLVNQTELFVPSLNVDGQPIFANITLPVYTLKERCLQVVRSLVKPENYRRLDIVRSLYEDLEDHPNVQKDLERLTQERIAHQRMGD
Chain of VCB: PROTAC: SMARCA4^BD ternary complex (Q15369 17-112 partner limits assumed): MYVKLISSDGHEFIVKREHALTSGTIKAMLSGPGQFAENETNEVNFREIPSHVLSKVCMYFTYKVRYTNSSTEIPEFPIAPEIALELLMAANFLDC
Chain of VCB: PROTAC: SMARCA4^BD ternary complex (Q15370 1-104 partner limits assumed): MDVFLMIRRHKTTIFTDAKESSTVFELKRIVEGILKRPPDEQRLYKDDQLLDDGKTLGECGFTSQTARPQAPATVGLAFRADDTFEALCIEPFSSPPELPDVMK
Chain of VCB: PROTAC: SMARCA4^BD ternary complex (P51532 1448-1569): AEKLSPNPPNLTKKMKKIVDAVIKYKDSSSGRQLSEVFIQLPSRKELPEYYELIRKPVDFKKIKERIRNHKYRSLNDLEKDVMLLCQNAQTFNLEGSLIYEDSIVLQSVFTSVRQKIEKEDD

[4] abbreviates: binary binding to VCB, mean ± SD.
Setting [5] is: ternary complex with SMARCA4BD, mean ± SD.

Broadly, the Kd is the constant that tells how readily two partners part at equilibrium.

Several values for one entry are separate records, joined by “and”; a condition that tells them apart may be missing. Equal entries are not always repeated.

T1 sequence (P40337 54-213): as the sequence (P40337 54-213) above
T1 sequence (Q15369 17-112 partner limits assumed): as the sequence (Q15369 17-112 partner limits assumed) above
T1 sequence (Q15370 1-104 partner limits assumed): as the sequence (Q15370 1-104 partner limits assumed) above

Turning to `Cc1ncsc1-c1ccc([C@H](COC(C)CN2CCC(c3ccc4c(c3)n(C3CCCC3)c3nc(=O)c5c(Br)cccc5n43)CC2)NC(=O)[C@@H]2C[C@@H](O)CN2C(=O)[C@@H](NC(=O)C2(N(C)C)CC2)C(C)(C)C)cc1` (some centres unmarked) [compound 10], the Kd was 124 ± 97 nM in experiment [1] (setting [4]); 76.7 nM and 269 nM and 65.4 nM and 86 nM in experiment [1] (binary, individual replicates); 172 ± 115 nM in experiment [3] (setting [5]); 305 nM and 102 nM and 109 nM in experiment [3] (ternary, individual replicates). Also, the “cooperativity α (SMARCA2BD)” value in experiment [2] worked out at 10.1 ± 3.8. In experiment [3], the alpha worked out at 0.7.

With `Cc1ncsc1-c1ccc([C@H](CCCCN2CCC(c3ccc4c(c3)n(C3CCCC3)c3nc(=O)c5c(Br)cccc5n43)CC2)NC(=O)[C@@H]2C[C@@H](O)CN2C(=O)[C@@H](NC(=O)C2(F)CC2)C(C)(C)C)cc1` [compound 25], the Kd in experiment [1] (setting [4]) was 6 ± 1 nM; in experiment [1] (binary, individual replicates), 6.94 nM and 6.43 nM and 5.3 nM; in experiment [3] (setting [5]), 14 ± 2 nM; in experiment [3] (ternary, individual replicates), 12.8 nM and 13.3 nM and 15.6 nM. The “cooperativity α (SMARCA2BD)” value in experiment [2] was determined as 2.2 ± 0.6. For the same compound, the alpha in experiment [3] stood at 0.4.

For `Cc1ncsc1-c1ccc([C@H](COC(C)(C)CN2CCC(c3ccc4c(c3)n(C3CCCC3)c3nc(=O)c5c(Br)cccc5n43)CC2)NC(=O)[C@@H]2C[C@@H](O)CN2C(=O)[C@@H](NC(=O)C2(F)CC2)C(C)(C)C)cc1` [compound 28], the Kd in experiment [1] (setting [4]) is 55 ± 29 nM; in experiment [1] (binary, individual replicates) it was 50.4 nM and 131 nM and 47.1 nM and 49.5 nM and 39.6 nM and 49.4 nM and 39.8 nM and 43.6 nM and 44.9 nM; in experiment [3] (setting [5]), 73 ± 13 nM; in experiment [3] (ternary, individual replicates), 63.4 nM and 67.4 nM and 86.9 nM. The “cooperativity α (SMARCA2BD)” value in experiment [2] was 3.8 ± 0.4. For the same compound, in experiment [3], the alpha was 0.8.

Consider `Cc1ncsc1-c1ccc(C(CCC(C)CCN2CCC(c3ccc4c(c3)n(C3CCCC3)c3nc(=O)c5c(Br)cccc5n43)CC2)NC(=O)C2CC(O)CN2C(=O)C(NC(=O)C2(F)CC2)C(C)(C)C)cc1` (centres unmarked) [ACBI2], for which the Kd was 28 ± 35 nM in experiment [1] (setting [4]); 24 ± 4 nM in experiment [3] (setting [5]); 21.9 nM and 22.7 nM and 28.4 nM in experiment [3] (ternary, individual replicates). The “cooperativity α (SMARCA2BD)” value in experiment [2] is reported as 4.6 ± 2.2. Further, the alpha in experiment [3] was 1.4.

Consider `Cc1ncsc1-c1ccc(CNC(=O)[C@@H]2C[C@@H](O)CN2C(=O)[C@@H](NC(=O)C2(F)CC2)C(C)(C)C)c(OCCCCN2CCC(c3ccc4c(c3)n(C3CCCC3)c3nc(=O)c5c(Br)cccc5n43)CC2)c1` [compound 23], for which the Kd is 16 ± 8 nM in experiment [1] (setting [4]); 11.5 nM and 28.1 nM and 12.3 nM and 10.9 nM in experiment [1] (binary, individual replicates); 84 ± 1 nM in experiment [3] (setting [5]); 84.3 nM and 82.7 nM and 85 nM in experiment [3] (ternary, individual replicates). Moreover, the “cooperativity α (SMARCA2BD)” value in experiment [2] amounted to 0.7 ± 0.3. Further, the alpha in experiment [3] turned out to be 0.2.

For `Cc1ncsc1-c1ccc([C@H](CCC(C)(C)CCN2CCC(c3ccc4c(c3)n(C3CCCC3)c3nc(=O)c5c(Br)cccc5n43)CC2)NC(=O)[C@@H]2C[C@@H](O)CN2C(=O)[C@@H](NC(=O)C2(F)CC2)C(C)(C)C)cc1` [compound 30], the Kd in experiment [1] (setting [4]) is 29 ± 8 nM; in experiment [1] (binary, individual replicates), 38.3 nM and 25.5 nM and 32.6 nM and 21 nM; in experiment [3] (setting [5]), 45 ± 6 nM; in experiment [3] (ternary, individual replicates), 41.2 nM and 41.8 nM and 51.4 nM. Moreover, in experiment [2], the “cooperativity α (SMARCA2BD)” value is 5.9 ± 1.9. Also, the alpha in experiment [3] is listed as 0.6.

As to `Cc1ncsc1-c1ccc([C@H](COC(C)CN2CCC(c3ccc4c(c3)n(C3CCCC3)c3nc(=O)c5c(Br)cccc5n43)CC2)NC(=O)[C@@H]2C[C@@H](O)CN2C(=O)[C@@H](NC(=O)C2(F)CC2)C(C)(C)C)cc1` (some centres unmarked) [compound 9], the Kd is 34 ± 6 nM in experiment [1] (setting [4]); 39.9 nM and 37.9 nM and 30.4 nM and 26.2 nM in experiment [1] (binary, individual replicates); 180 ± 13 nM in experiment [3] (setting [5]); 171 nM and 174 nM and 195 nM in experiment [3] (ternary, individual replicates). Moreover, the “cooperativity α (SMARCA2BD)” value in experiment [2] was found to be 7.0 ± 2.6. The alpha in experiment [3] turned out to be 0.2.

The values are drawn from paper PMC9551036, “A selective and orally bioavailable VHL-recruiting PROTAC achieves SMARCA2 degradation in vivo” (Nature Communications, 2022).
